The values below come from ChEMBL document CHEMBL4145534, “Computer-aided insights into receptor-ligand interaction for novel 5-arylhydantoin derivatives as serotonin 5-HT7 receptor agents with antidepressant activity” (Eur J Med Chem, 2018).

Holding throughout (assay type): functional
In test [1] the test system is Mus musculus. Description: Antidepressant like activity in Swiss albino mouse assessed as immobility time at 5 mg/kg, ip administered 30 mins prior to test and measured last 4 mins of 6 mins test by forced swimming test (reference value: 162.71 +/- 6.8 secs).
Test [2] concerns Mus musculus. Description: Antidepressant like activity in Swiss albino mouse assessed as immobility time at 10 mg/kg, ip administered 30 mins prior to test and measured last 4 mins of 6 mins test by forced swimming test (reference value: 162.71 +/- 6.8 secs).
For test [3], the system named is Mus musculus. Description: Antidepressant like activity in Swiss albino mouse assessed as immobility time at 20 mg/kg, ip administered 30 mins prior to test and measured last 4 mins of 6 mins test by forced swimming test (reference value: 162.71 +/- 6.8 secs).

As for `CN(C)CCCN1c2ccccc2CCc2ccccc21` [IMIPRAMINE], the Time is 170.42 s in test [1], 119.63 s in test [2] and 77.81 s in test [3].
